One block for each molecule: values may come before it.
What was measured:
[1] = target: T1, Glycylpeptide N-tetradecanoyltransferase (Plasmodium vivax (strain Salvador I), UniProt A5K1A2); assay: Inhibition of recombinant Plasmodium vivax NMT
T1 sequence (A5K1A2 whole entry): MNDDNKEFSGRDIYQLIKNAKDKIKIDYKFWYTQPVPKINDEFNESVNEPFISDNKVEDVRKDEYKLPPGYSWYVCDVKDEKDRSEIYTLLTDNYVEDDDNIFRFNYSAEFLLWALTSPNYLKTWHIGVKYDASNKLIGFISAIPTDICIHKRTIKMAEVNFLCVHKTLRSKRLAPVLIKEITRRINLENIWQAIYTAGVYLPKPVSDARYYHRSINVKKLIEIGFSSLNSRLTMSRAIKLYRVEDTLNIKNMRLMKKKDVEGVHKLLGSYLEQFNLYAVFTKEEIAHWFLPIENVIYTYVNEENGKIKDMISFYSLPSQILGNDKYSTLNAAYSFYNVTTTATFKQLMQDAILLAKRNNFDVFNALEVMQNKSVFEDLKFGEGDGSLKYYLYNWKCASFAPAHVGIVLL

[2] = target: T2, Glycylpeptide N-tetradecanoyltransferase 1 (Homo sapiens, UniProt P30419); assay: Inhibition of recombinant human NMT
T2 sequence (P30419 whole entry): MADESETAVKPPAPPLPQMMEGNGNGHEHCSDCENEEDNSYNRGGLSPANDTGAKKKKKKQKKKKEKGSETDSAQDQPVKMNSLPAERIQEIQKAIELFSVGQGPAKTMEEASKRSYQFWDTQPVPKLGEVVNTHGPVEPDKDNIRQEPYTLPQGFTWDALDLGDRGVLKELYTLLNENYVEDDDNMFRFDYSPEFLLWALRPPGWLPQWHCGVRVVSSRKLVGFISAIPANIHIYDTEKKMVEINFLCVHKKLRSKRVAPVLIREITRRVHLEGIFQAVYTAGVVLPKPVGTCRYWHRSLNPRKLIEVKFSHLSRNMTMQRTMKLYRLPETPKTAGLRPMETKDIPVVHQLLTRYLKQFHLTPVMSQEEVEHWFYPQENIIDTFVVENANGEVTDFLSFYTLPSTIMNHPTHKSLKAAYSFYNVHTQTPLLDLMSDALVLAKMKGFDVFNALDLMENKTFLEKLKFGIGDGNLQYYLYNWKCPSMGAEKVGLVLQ

[3] = target: T3, Glycylpeptide N-tetradecanoyltransferase (Plasmodium falciparum, UniProt Q9U419); assay: Inhibition of recombinant Plasmodium falciparum NMT
T3 sequence (Q9U419 whole entry): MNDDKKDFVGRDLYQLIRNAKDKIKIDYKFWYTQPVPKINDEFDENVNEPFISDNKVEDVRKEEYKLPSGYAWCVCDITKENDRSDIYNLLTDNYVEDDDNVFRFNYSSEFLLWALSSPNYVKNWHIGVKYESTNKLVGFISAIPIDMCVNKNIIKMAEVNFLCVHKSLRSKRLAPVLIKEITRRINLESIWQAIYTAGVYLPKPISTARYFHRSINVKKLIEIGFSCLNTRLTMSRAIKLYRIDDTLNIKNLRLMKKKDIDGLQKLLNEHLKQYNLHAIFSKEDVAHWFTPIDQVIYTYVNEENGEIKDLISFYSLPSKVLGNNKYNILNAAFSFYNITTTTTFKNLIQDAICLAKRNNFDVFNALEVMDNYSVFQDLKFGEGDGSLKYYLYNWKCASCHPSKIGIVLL

[4] = Inhibition of full length Caenorhabditis elegans NMT expressed in Escherichia coli incubated for 10 mins by liquid scintillation analysis
[5] = Inhibition of full length Brugia malayi NMT expressed in Escherichia coli incubated for 10 mins by liquid scintillation analysis
[6] = target: T1, Glycylpeptide N-tetradecanoyltransferase; assay: Binding affinity to Plasmodium vivax NMT assessed as inhibition constant using YnMyr-CoA as substrate
[7] = target: T3, Glycylpeptide N-tetradecanoyltransferase; assay: Binding affinity to Plasmodium falciparum NMT assessed as inhibition constant using GSNKSKPKDASQRRR-NH2 as peptide substrate

IC50 [1]: 680 nM
IC50 [2]: 60 nM
IC50 [3]: 24300 nM
SMILES: NCCCCCCCCCC(=O)N[C@@H](CO)C(=O)N[C@@H](CCCCN)C(=O)NCCC1CCCCC1

IC50 [4]: 10 nM
IC50 [5]: 2000 nM
SMILES: Cc1nn(C)c(CC(C)C)c1NS(=O)(=O)c1c(Cl)cc(-c2cccc(C(C)(C)N)c2)cc1Cl

Ki [6]: 2.7 nM
Ki [7]: 8 nM
SMILES: Cc1nn(C)c(C)c1Cc1nnc(-c2sc3ccccc3c2NC2CCNCC2)o1

From ChEMBL document CHEMBL5634069, “Exploring N-myristoyltransferase as a promising drug target against parasitic neglected tropical diseases” (Eur J Med Chem, 2023)
